From US20240254138A1, “TRICYCLIC PYRIMIDINES AS CYCLIN-DEPENDENT KINASE 7 (CDK7) INHIBITORS” (JANSSEN PHARMACEUTICA NV, priority 2021, published 2024)
Read-outs that look alike come from different tables or passages of the source.

Experiments:
[1] = test system: RNA Polymerase II Serine 5 phosphorylation (Rpb1 CTD, downstream substrate of CDK7) in A549 cells; test: Imaging-based cellular RNA PolII Ser5 phosphorylation assay in A549 cells; type: cell-based, human; conditions: for IC50: Homo sapiens
In short: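 IC50 derived by fitting % control (DMSO high, 10 μM reference low) against concentration, with Hill slope. Readout: high-content imaging of phospho-Ser5 Rpb1 CTD antibody staining in fixed, permeabilized A549 cells exposed to compound 3 h after 20 h culture in 1% FBS DMEM.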

[2] = test system: RNA Polymerase II Serine 5 phosphorylation in A549 cells overexpressing CDK7-mutant (C312S); test: Imaging-based cellular RNA PolII Ser5 phosphorylation assay in A549 cells overexpressing CDK7-mutant (C312S); type: cell-based, human; conditions: for IC50: Homo sapiens
In short: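 Readout was automated imaging of anti-phospho-Ser5 Rpb1 CTD immunofluorescence, with IC50 fitted to % control versus concentration. Cells were A549 stably overexpressing non-covalently targetable CDK7 C312S alongside wild-type, exposed to compound 3 h at 37 °C. DMSO and 10 μM reference compound served as controls.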

[3] = target: CDK7/cyclinH/MAT1 trimeric complex (Homo sapiens, UniProt P50613); test: In vitro CDK7 assay, potency of irreversible covalent inhibitors (kinact/KI), coupled PK/LDH ADP readout at 340 nm
[4] = A549, A549 cells, wild-type CDK7, RNA PolII Ser5 phosphorylation, averaged over all measurements, read-out: CDK7_A549 Wild-type CDK7 (pIC50) (converted)
[5] = A549, A549 cells overexpressing CDK7-mutant (C312S), RNA PolII Ser5 phosphorylation, averaged over all measurements, read-out: CDK7_A549 mutant hCDK7(pIC50) (converted)
[6] = CDK7 (KI(μM)), […], 1 mM ATP, room temperature, averaged values over all measurements
[7] = read-out: CDK7 (kinact, s^−1), kinact = maximal rate of inactivation, 1 mM ATP, room temperature, averaged values over all measurements
[8] = read-out: CDK7 (kinact/KI, M^−1*s^−1), potency of irreversible covalent inhibitors, 1 mM ATP, room temperature, averaged values over all measurements
[9] = CDK7 (20 nM enz.) (KI, μM), 20 nM enzyme
[10] = read-out: CDK7 (20 nM enz.) (kinact, s^−1), 20 nM enzyme
[11] = read-out: CDK7 (20 nM enz.) (kinact/KI, M^−1*s^−1), 20 nM enzyme
[12] = read-out: CDK7 (20 nM enz.) (kobs/[I], M^−1*s^−1), 20 nM enzyme

Chain of CDK7/cyclinH/MAT1 trimeric complex (P50613 whole entry): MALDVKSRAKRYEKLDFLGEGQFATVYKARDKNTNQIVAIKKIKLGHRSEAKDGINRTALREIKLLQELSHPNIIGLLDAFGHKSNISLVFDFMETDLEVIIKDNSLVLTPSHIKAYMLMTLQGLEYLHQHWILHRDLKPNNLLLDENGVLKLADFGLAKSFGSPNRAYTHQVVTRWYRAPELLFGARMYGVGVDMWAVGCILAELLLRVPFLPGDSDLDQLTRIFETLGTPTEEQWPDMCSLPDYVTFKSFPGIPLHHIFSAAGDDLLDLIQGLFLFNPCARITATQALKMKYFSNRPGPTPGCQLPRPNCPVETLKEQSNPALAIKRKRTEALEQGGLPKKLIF
Chain of CDK7/cyclinH/MAT1 trimeric complex (P51946 whole entry partner): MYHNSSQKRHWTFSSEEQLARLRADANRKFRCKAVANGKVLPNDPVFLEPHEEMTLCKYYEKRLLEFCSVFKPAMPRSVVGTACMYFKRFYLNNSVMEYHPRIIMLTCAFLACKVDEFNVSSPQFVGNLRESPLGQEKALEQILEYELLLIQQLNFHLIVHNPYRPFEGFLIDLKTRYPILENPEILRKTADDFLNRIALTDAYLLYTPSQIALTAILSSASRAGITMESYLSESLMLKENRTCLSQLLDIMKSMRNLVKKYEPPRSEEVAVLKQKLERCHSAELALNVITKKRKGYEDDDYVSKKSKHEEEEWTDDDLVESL
Chain of CDK7/cyclinH/MAT1 trimeric complex (P51948 whole entry partner): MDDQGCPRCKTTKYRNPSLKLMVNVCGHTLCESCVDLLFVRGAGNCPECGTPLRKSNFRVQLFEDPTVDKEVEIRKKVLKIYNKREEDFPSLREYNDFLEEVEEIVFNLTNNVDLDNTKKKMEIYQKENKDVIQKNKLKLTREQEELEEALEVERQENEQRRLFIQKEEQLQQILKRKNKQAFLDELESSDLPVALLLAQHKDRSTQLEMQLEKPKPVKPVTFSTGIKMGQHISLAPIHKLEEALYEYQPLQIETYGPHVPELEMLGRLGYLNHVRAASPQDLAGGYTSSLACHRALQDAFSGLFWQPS

Structure (SMILES) | IC50 [1, 4] [nM] | IC50 [2, 5] [nM] | kinact/KI [3, 8] [M⁻¹ s⁻¹] | also measured
C=CC(=O)N1CC(N2CCC(c3ccc4c(c3)Nc3nccc(C5=CCOCC5)c3CO4)CC2)C1 [Compound 10] | 204 | > 10000 | 1570 | Ki [3, 6]: 0.0555 µM; kinact [3, 7]: 0.000107 s⁻¹
C=CC(=O)N1CC(N2CCC(c3ccc4c(c3)Nc3nccc(N5C[C@H]6CC[C@@H](C5)O6)c3CO4)CC2)C1 [Compound 11] | 87.1 | > 10000 | 688 | 
C=CC(=O)N1CC(N2CCC(c3ccc4c(c3)Nc3nccc(N5CC=C(CCO)CC5)c3CO4)CC2)C1 [Compound 12] | 537 | > 10000 | 296 | 
C=CC(=O)Nc1ccc(CNc2ccc3c(c2)Nc2nccc(N4CCOCC4)c2CO3)cn1 [Compound 16] | 45.7 | 3800 | 402 | Ki [3, 9]: 0.0286 µM; kinact [3, 10]: 3.3e-05 s⁻¹; kinact/KI [3, 11]: 1160 M⁻¹ s⁻¹
C#CCN(C(=O)C=C)c1ccc(C(=O)Nc2ccc3c(c2)Nc2nccc(C4CCOCC4)c2CO3)cc1 [Compound 17] | 126 | > 10000 |  | kinact/KI [3, 12]: 1470 M⁻¹ s⁻¹
C#Cc1cc(C(=O)Nc2ccc3c(c2)Nc2nccc(C4CCOCC4)c2CO3)ccc1NC(=O)C=C [Compound 18] | 100 | 4270 |  | kinact/KI [3, 12]: 1070 M⁻¹ s⁻¹
C=CC(=C)N1CC(N2CCC(c3cc4c(cc3C)OCc3c(N5CCOCC5)ccnc3N4)CC2)C1 [Compound 19] |  |  |  | IC50 ([1]; A549, read-out: CDK7_A549 Wild-type CDK7 (pIC50) (converted)): 166 nM; IC50 ([2]; A549, read-out: CDK7_A549 mutant hCDK7(pIC50) (converted)): > 10000 nM; kinact/KI ([3]; read-out: CDK7 (kinact/KI, M^−1*s^−1)): 304 M⁻¹ s⁻¹
C=CC(=O)Nc1cc(-c2ccc3c(c2)Nc2nccc(N4CCOCC4)c2CO3)ccn1 [Compound 24] | 52.5 | 6920 | 21.5 | kinact/KI [3, 11]: 1250 M⁻¹ s⁻¹
C=CC(=O)N1CCC(c2ccc(-c3ccc4c(c3)Nc3nccc(N5CCOCC5)c3CO4)cn2)C1 (stereo not shown) [Compound 25] | 891 | > 10000 | 254 | Ki [3, 6]: 0.0648 µM; kinact [3, 7]: 2.33e-05 s⁻¹
C=CC(=O)Nc1ccc(-c2ccc3c(c2)Nc2nccc(N4CCOCC4)c2CO3)cn1 [Compound 26] |  |  | 1620 | CDK7_A549 Wild-type CDK7 (pIC50) ([1]; A549 cells, wild-type CDK7, RNA PolII Ser5 phosphorylation, averaged over all measurements): 7.65; CDK7_A549 mutant hCDK7(pIC50) ([2]; A549 cells overexpressing CDK7-mutant (C312S), RNA PolII Ser5 phosphorylation, averaged over all measurements): ~5.1; CDK7 (20 nM enz.) (kobs/[I], M^−1*s^−1) ([3]; 20 nM enzyme): 1343.33 M⁻¹ s⁻¹; Ki [3, 6]: 0.063 µM; kinact [3, 7]: 0.000102 s⁻¹
C=CC(=O)N1CCC(C#Cc2ccc3c(c2)Nc2nccc(C4CCOCC4)c2CO3)CC1 [Compound 30] | ~7590 | > 10000 | 208 | Ki [3, 6]: 0.316 µM; kinact [3, 7]: 6.56e-05 s⁻¹

Further lines, with some results ahead:

IC50 [1, 4] [nM] | IC50 [2, 5] [nM] | kinact/KI [3, 8] [M⁻¹ s⁻¹] | Structure (SMILES) | also measured
135 | > 10000 | 1040 | C=CC(=O)N1CC(N2CCC(c3ccc4c(c3)Nc3ncc(Cl)c(N5CCOCC5)c3CO4)CC2)C1 [Compound 13] | 
56.2 | > 10000 | 52.4 | C=CC(=O)N1CC(N2CCC(c3ccc4c(c3)Nc3nccc(N5CCOCC5)c3C(C)O4)CC2)C1 (stereo not shown) [Compound 22] | Ki [3, 9]: 0.0524 µM; kinact [3, 10]: 7.22e-05 s⁻¹; kinact/KI [3, 11]: 1870 M⁻¹ s⁻¹
120 | > 10000 | 455 | C=CC(=O)N1CC(N2CCC(c3cc4c(cc3Cl)OCc3c(N5CCOCC5)ccnc3N4)CC2)C1 [Compound 23] | 
257 | > 10000 | 477 | C=CC(=O)N1CC(N2CCC(c3cc4c(cc3F)OCc3c(N5CCOCC5)ccnc3N4)CC2)C1 [Compound 28] | 
38.9 | ~7760 |  | C=CC(=O)N1CC(N2CCC(c3cc(Cl)c4c(c3)Nc3nccc(N5CCOCC5)c3CO4)CC2)C1 [Compound 29] | kinact/KI [3, 11]: 1030 M⁻¹ s⁻¹
